Data as given in US20250032624A1, “SMALL MOLECULE DEGRADATION METHODS FOR TREATING ALS/FTD” (University of Florida Research Foundation, Incorporated, priority 2021, published 2025).

How the values were obtained:
r(GGCC)8 = assay: Affinity by MST, base-paired control r(GGCC)8; format: binding; conditions: base-paired control r(GGCC)8, concentrations up to 20 μM
Protocol: Affinity measurements were performed by MST using a Monolith NT.115 system (NanoTemper Technologies) with 5′-Cy5-labeled r(G4C2)8 (SEQ ID NO: 1), 5′-Cy5-labeled d(G4C2)8 (SEQ ID NO: 1), and 5′-Cy5-labeled base pair control r(G2C2)4GAAA(G2C2)4 (SEQ ID NO: 49). All oligos were deprotected according to the manufacturer's recommended protocol. Samples were prepared as previously described^30. Briefly, RNA or DNA (5 nM) was folded in 1×MST Buffer (8 mM Na2HPO4, 185 mM NaCl, 1 mM EDTA) by heating at 95° C. for 5 minutes and slowly cooling to room temperature. Tween-20 was then added to a final concentration of 0.05% (v/v). Serial dilutions of compound in 1×MST Buffer containing 5 nM folded nucleic acid were then carried out to yield the desired compound concentrations. Samples were incubated for 90 minutes at room temperature and then loaded into premium capillaries (NanoTemper Technologies). The following parameters were used on the Monolith NT.115 system: 10% LED, 20-80% MST power, Laser-On time=30 s, Laser-Off time=5 seconds. Fluorescence was detected using excitation wavelengths of 605-645 nm and emission wavelengths of 680-685 nm. The resulting data were analyzed by thermophoresis analysis and fit using the quadratic binding equation in the MST analysis software (NanoTemper Technologies). The dissociation constant was determined using Equation 1. […]

canonical translation = assay: Canonical translation (mCherry) in transfected HEK293T cells; format: cell-based
Protocol: FIG. 8A is a schematic of co-transfection of a No ATG-d(G4C2)66-GFP (SEQ ID NO: 45) plasmid and an ATG-mCherry plasmid into HEK293T cells allows for RAN translation to be measured based on the GFP signal. The mCherry signal measures canonical translation. […] Error bars represent SD.
HEK293T cells were cultured according to the methods described above. After reaching ˜80% confluency, HEK293T cells were batch-transfected, according to the manufacturer's protocol, in 100 mm dishes using the Lipofectamine 3000 transfection system (Thermo Fischer) for 5 hours with […] of a plasmid encoding r(G4C2)66-no ATG-nano-luciferase and 1 μg of a plasmid encoding SV40-Firefly luciferase (Life Technologies). Cells were seeded into a 384-well plate and incubated overnight. Compounds were treated in <0.1% DMSO final concentration for 24 hours. RAN and canonical translation were measured using a Dual-Luciferase® Reporter Assay System (Promega) following the manufacturer's protocol. Experiments were performed as biological triplicates (n=3). […] in untransfected cells were measured to determine the background signal.

[1] = system: RAN translation, poly(GP); assay: poly(GP) abundance by electroluminescent sandwich immunoassay in c9ALS/FTD patient-derived LCLs; format: cell-based, human; conditions: 500 nM
Protocol: Meso Scale Discovery (MSD) Technology utilizes electrochemiluminescence to detect biomarkers, such as poly(GP), in protein samples. All cells were seeded in 6-well plates. LCLs were seeded in 2 mL of RPMI at 1×10^6 cells/mL and treated with compound for 4 days without media changes; patient-derived iPSCs were seeded at ˜80% confluency and treated as described above; patient-derived iPSNs began compound treatment on Day 15 of the differentiation process as previously described. Compounds were diluted to 0.1% DMSO final concentration in medium. […] Protein samples were quantified using a Pierce™ Micro BCA Protein Assay Kit (Thermo Scientific).
Poly(GP) levels were measured by an electrochemical luminescent sandwich immunoassay. […]
Following incubation wells were washed three times in 1×TBST (Tris-buffered saline containing 0.1% (v/v) Tween-20) and blocked with a 3% (w/v) BSA solution in 1×TBST for 1 hour with shaking at room temperature. […] After incubation, the wells were washed three times with 1×TBST and 150 μL of 1×MSD GOLD Read Buffer (MSD Technology) was applied to the wells immediately before reading the plate. The plate was read using a SECTOR Imager (MSD Technology).

[2] = system: C9orf72 and transcriptome; assay: RNA-seq in c9ALS/FTD patient-derived iPSCs; format: cell-based, human
Protocol: (§1) Total RNA integrity was confirmed by Agilent 2100 Bioanalyzer RNA nano chip, and the quantity was measured by Qubit 2.0 Fluorometer (Invitrogen). The library preparation was performed using NEBNext Ultra II Directional RNA kit (NEB, E7760) in combination with NEBNext rRNA depletion module (NEB, E6310) and RNA fragmentation module (NEB, E6150S), following manufacturer's recommendations. Briefly, a total of 200 ng RNA was first processed with depleted of ribosomal RNA, and then randomly fragmented to achieve range between 150 to 300 nucleotides. The fragmented RNAs were random primed for the first-strand synthesis, and the second strand was synthesized with dUTPs. The strand information is thus preserved by using USER enzyme (Uracil-specific excision reagent). The cDNA was PCR amplified and pooled equimolar to load onto the NextSeq 500 v2.5 flow cell and sequenced with 2×40 bp paired-end method. The output fastq files were aligned using STAR 3^5. The read counts of specific regions were extracted using samtools.^36 The global differential gene expression analysis was performed using featureCounts and Deseq2.^37,38

[3] = system: C9orf72 and transcriptome; assay: RNA-seq in iPSCs from healthy donors; format: cell-based, human; conditions: healthy donor iPSCs
Protocol: as §1

## CCOC(=O)C1=C(Nc2ccccc2)S/C(=C\c2ccc(OCCOCCOCCOCCNC(=O)CCCOc3ccc4c(c3)c3cc5c(C(=O)N[C@H](C)CN(C)C)nccc5c(C)c3n4C)c(O)c2)C1=O [ALS Compound Formula I]
r(GGCC)8
  saturable binding: No saturable binding
Canonical translation
  effect on mCherry signal (canonical translation): no effect
[1]
  reduction of poly(GP) abundance: ~50%
[2]
  SOCS1 regulation by RNA-seq: not found to be significantly down-regulated
[2]; 50 nM
  intron 1:exon 2 ratio: significantly reduced
  off-targets transcriptome-wide: minimal off-targets
  total C9orf72 read counts: no effect
[3]
  C9orf72 read count: no effect
  intron 1:exon 2 ratio: no effect
  off-target effects transcriptome-wide: minimal off-target effects
